Data reported in publication PMC2879007 (Biochemical pharmacology, 2010).
Marks after values point to notes of the source that are not given here.

Legend:
[1] = serum pharmacokinetics in wild-type FVB/N mice; type: in vivo; details: for Cmax / MRT / Tmax / half-life: FVB/N (wild-type), mouse, ip; for Cmax / MRT / Tmax / half-life / AUC0→∞: serum; for increase of Cmax by co-administered harmaline / increase of MRT by co-administered harmaline / increase of systemic exposure (AUC0→∞) by harmaline pre-treatment: 5-MeO-DMT 2 mg/kg i.p., harmaline 5 mg/kg i.p.
[2] = test system: human CYP2D6 EM hepatocytes; assay: 5-MeO-DMT depletion and bufotenine formation in human CYP2D6 EM hepatocytes
[3] = serum pharmacokinetics in Tg-CYP2D6; type: in vivo, mice; details: for Cmax / MRT / Tmax / half-life: Tg-CYP2D6 (CYP2D6-humanized), mouse, ip; for Cmax / MRT / Tmax / half-life / AUC0→∞: serum; for increase of systemic exposure (AUC0→∞) by harmaline pre-treatment: 5-MeO-DMT 2 mg/kg i.p., harmaline 5 mg/kg i.p.
[4] = test system: human CYP2D6 PM hepatocytes; assay: 5-MeO-DMT depletion and bufotenine formation in human CYP2D6 PM hepatocytes
purified human MAO-A = details: reversible competitive inhibitor; cited from earlier work
[5] = 5-MeO-DMT depletion and bufotenine formation in human CYP2D6 EM hepatocytes; details: human, 5-MeO-DMT alone, 2 µM; for hepatocyte CLint at 2 µM: In vitro CLint
CYP2D6.1 = CYP2D6.1 (Homo sapiens, UniProt P10635); assay: bufotenine production from 5-MeO-DMT by recombinant CYP2D6.1; type: in vitro ADME
CYP2D6.10 = CYP2D6.10 (Homo sapiens, UniProt P10635, P34S/S486T); assay: bufotenine production from 5-MeO-DMT by recombinant CYP2D6.10; type: in vitro ADME
[6] = 5-MeO-DMT depletion and bufotenine formation in human CYP2D6 PM hepatocytes; details: human, 5-MeO-DMT alone, 2 µM; for hepatocyte CLint at 2 µM: In vitro CLint
CYP2D6.2 = CYP2D6.2 (Homo sapiens, UniProt P10635, R296C/S486T); assay: bufotenine production from 5-MeO-DMT by recombinant CYP2D6.2; type: in vitro ADME
[7] = wild-type mice, 2 mg/kg 5-MeO-DMT alone i.p.
[8] = Tg-CYP2D6 mice, 2 mg/kg 5-MeO-DMT alone i.p.
[9] = bufotenine production from 5-MeO-DMT, Vmax/Km
[10] = bufotenine production from 5-MeO-DMT, mean ± SEM
[11] = 5-MeO-DMT O-demethylase activity
[12] = PM hepatocytes 2, with harmaline, 2 µM each
[13] = PM hepatocytes 3, with harmaline, 2 µM each
[14] = PM hepatocytes 4, with harmaline, 2 µM each

CN(C)CCc1c[nH]c2ccc(O)cc12 [Bufotenine, 5-hydroxy-N,N-dimethyltryptamine]
Cmax ([1]; 2 mg/kg): 51.4 ± 9.1 nM
MRT ([1]; 2 mg/kg): 54.9 min
Tmax ([1]; 2 mg/kg): 11.3 min
half-life ([1]; 2 mg/kg): 33 ± 26 min
Cmax ([1]; 20 mg/kg): 210 ± 54 nM
MRT ([1]; 20 mg/kg): 55.8 min
Tmax ([1]; 20 mg/kg): 21.3 min
half-life ([1]; 20 mg/kg): 25.4 ± 5.3 min
AUC0→∞ [1, 7]: 2.69 ± 1.21 µmol·min/L
AUC(Bufotenine)/AUC(5−MeO−DMT) [1, 7]: 10.5 ± 4.4%
AUC(Bufotenine)/AUC(5−MeO−DMT) ([1]; wild-type mice, 2 mg/kg 5-MeO-DMT i.p. with 5 mg/kg harmaline i.p. pretreatment): 15.1 ± 2.9%
increase of Cmax by co-administered harmaline ([1]; wild-type mice): about 2.6 fold
increase of MRT by co-administered harmaline ([1]; wild-type mice): ~1.8 fold
increase of systemic exposure (AUC0→∞) by harmaline pre-treatment ([1]; wild-type mice): 6.1 fold
bufotenine formation from 5-MeO-DMT ([2]; CYP2D6 EM hepatocytes): only detected in incubations with CYP2D6 EM hepatocytes
higher systemic exposure in Tg-CYP2D6 mice than wild-type mice ([3]; 20 mg/kg 5-MeO-DMT i.p.): 60%
Cmax ([3]; 2 mg/kg): 53 ± 13 nM
MRT ([3]; 2 mg/kg): 33.7 min
Tmax ([3]; 2 mg/kg): 8.8 min
half-life ([3]; 2 mg/kg): 20.7 ± 9.8 min
MRT ([3]; 20 mg/kg): 52.8 min
Tmax ([3]; 20 mg/kg): 27.5 min
half-life ([3]; 20 mg/kg): 18.5 ± 1.5 min
AUC(Bufotenine)/AUC(5−MeO−DMT) [3, 8]: 8.5 ± 2.8%
AUC(Bufotenine)/AUC(5−MeO−DMT) ([3]; Tg-CYP2D6 mice, 2 mg/kg 5-MeO-DMT i.p. with 5 mg/kg harmaline i.p. pretreatment): 24.0 ± 3.3% ^a, ^b
increase of systemic exposure (AUC0→∞) by harmaline pre-treatment ([3]; Tg-CYP2D6 mice): 9.9 fold
AUC0→∞ [3, 8]: 1.82 ± 0.74 µmol·min/L
bufotenine formation from 5-MeO-DMT ([4]; CYP2D6 PM hepatocytes, even co-incubated with harmaline): could not produce detectable bufotenine

COc1ccc2c3c([nH]c2c1)C(C)=NCC3 [Harmaline]
Ki (purified human MAO-A): 48 nM

COc1ccc2[nH]cc(CCN(C)C)c2c1 [5-MeO-DMT, 5-Methoxy-N,N-dimethyltryptamine]
Cmax ([1]; 2 mg/kg): 1360 ± 160 nM
MRT ([1]; 2 mg/kg): 19.1 min
Tmax ([1]; 2 mg/kg): 5.3 min
half-life ([1]; 2 mg/kg): 19.5 ± 12.2 min
Cmax ([1]; 20 mg/kg): 18300 ± 2800 nM
MRT ([1]; 20 mg/kg): 27.2 min
Tmax ([1]; 20 mg/kg): 7.5 min
half-life ([1]; 20 mg/kg): 13.4 ± 1 min
AUC0→∞ [1, 7]: 25.1 ± 1.3 µmol·min/L
AUC0→∞ ([1]; wild-type mice, 20 mg/kg 5-MeO-DMT i.p.): 650 ± 78 µmol·min/L
clearance [1, 7]: 370 ± 20 mL/min/kg
increase of Cmax by co-administered harmaline ([1]; wild-type mice): about 1.4 fold
increase of MRT by co-administered harmaline ([1]; wild-type mice): ~2.1 fold
increase of systemic exposure (AUC0→∞) by harmaline pre-treatment ([1]; wild-type mice): 4.4 fold
half-life at 2 µM ([5]; CYP2D6 EM hepatocytes, In vitro T1/2, EM hepatocytes 1): 32.4 min
half-life at 2 µM ([5]; CYP2D6 EM hepatocytes, In vitro T1/2, EM hepatocytes 2): 29.9 min
hepatocyte CLint at 2 µM ([5]; human CYP2D6 EM (extensive metabolizer) hepatocytes, EM hepatocytes 3): 141 µL/min/1e6 cells
hepatocyte CLint at 2 µM ([5]; human CYP2D6 EM (extensive metabolizer) hepatocytes, EM hepatocytes 4): 51 µL/min/1e6 cells
hepatocyte CLint at 2 µM ([5]; human CYP2D6 EM (extensive metabolizer) hepatocytes, EM hepatocytes 5): 87.4 µL/min/1e6 cells
half-life at 2 µM ([5]; human CYP2D6 EM (extensive metabolizer) hepatocytes, In vitro T1/2, EM hepatocytes 3): 25.4 min
half-life at 2 µM ([5]; human CYP2D6 EM (extensive metabolizer) hepatocytes, In vitro T1/2, EM hepatocytes 4): 34.7 min
half-life at 2 µM ([5]; human CYP2D6 EM (extensive metabolizer) hepatocytes, In vitro T1/2, EM hepatocytes 5): 20.8 min
half-life at 2 µM ([5]; human CYP2D6 EM (extensive metabolizer) hepatocytes, In vitro T1/2, EM hepatocytes Mean (N = 5)): 28.6 min
reduction of in vitro CLint by co-administered harmaline ([2]; CYP2D6 EM hepatocytes, 5-MeO-DMT alone vs with harmaline): over 24 fold
Ke ([2]; EM hepatocytes 1, 5-MeO-DMT alone, 2 µM): 0.0214 min⁻¹
Ke ([2]; EM hepatocytes 1, with harmaline, 2 µM each): 0.00259 min⁻¹
Ke ([2]; EM hepatocytes 2, 5-MeO-DMT alone, 2 µM): 0.0232 min⁻¹
Ke ([2]; EM hepatocytes 2, with harmaline, 2 µM each): 0.00141 min⁻¹
Ke ([2]; EM hepatocytes 3, 5-MeO-DMT alone, 2 µM): 0.0273 min⁻¹
Ke ([2]; EM hepatocytes 3, with harmaline, 2 µM each): 0.00263 min⁻¹
Ke ([2]; EM hepatocytes 4, 5-MeO-DMT alone, 2 µM): 0.02 min⁻¹
Ke ([2]; EM hepatocytes 4, with harmaline, 2 µM each): 0.00195 min⁻¹
Ke ([2]; EM hepatocytes 5, 5-MeO-DMT alone, 2 µM): 0.0333 min⁻¹
Ke ([2]; EM hepatocytes 5, with harmaline, 2 µM each): 0.00061 min⁻¹
Ke ([2]; EM hepatocytes Mean (N = 5), 5-MeO-DMT alone, 2 µM): 0.025 min⁻¹
Ke ([2]; EM hepatocytes Mean (N = 5), with harmaline, 2 µM each): 0.00184 min⁻¹
CLint (CYP2D6.1; [9]): 0.44 µL/pmol P450/min
Vmax (CYP2D6.1; [10]): 12.8 ± 0.4 pmol/pmol P450/min
Km at 5 min (CYP2D6.1; human, recombinant CYP2D6.1 reconstituted with P450 reductase, pH 7.4): 29.3 ± 4.2 µM
lower catalytic efficiency (Vmax/Km) compared with wild-type CYP2D6.1 (CYP2D6.10; [11]): 40 fold
CLint (CYP2D6.10; [9]): 0.011 µL/pmol P450/min
Vmax (CYP2D6.10; [10]): 10.3 ± 2.2 pmol/pmol P450/min
Km at 20 min (CYP2D6.10; human, recombinant CYP2D6.10 reconstituted with P450 reductase, pH 7.4): 947 ± 355 µM
Cmax ([3]; 2 mg/kg): 1190 ± 330 nM
MRT ([3]; 2 mg/kg): 17.4 min
Tmax ([3]; 2 mg/kg): 5.8 min
half-life ([3]; 2 mg/kg): 14.7 ± 9 min
Cmax ([3]; 20 mg/kg): 18700 ± 900 nM
MRT ([3]; 20 mg/kg): 23.1 min
Tmax ([3]; 20 mg/kg): 6.3 min
half-life ([3]; 20 mg/kg): 13.4 ± 1.4 min
clearance [3, 8]: 440 ± 50 mL/min/kg
increase of systemic exposure (AUC0→∞) by harmaline pre-treatment ([3]; Tg-CYP2D6 mice): 3.6 fold
AUC0→∞ [3, 8]: 21.1 ± 2.3 ^b µmol·min/L
AUC0→∞ ([3]; Tg-CYP2D6 mice, 20 mg/kg 5-MeO-DMT i.p.): 568 ± 72 µmol·min/L
hepatocyte CLint at 2 µM ([6]; CYP2D6 PM hepatocytes, PM hepatocytes Mean (N = 4)): 81.9 µL/min/1e6 cells
half-life at 2 µM ([6]; CYP2D6 PM hepatocytes, In vitro T1/2, PM hepatocytes Mean (N = 4)): 30.8 min
hepatocyte CLint at 2 µM ([6]; human CYP2D6 PM (poor metabolizer) hepatocytes, PM hepatocytes 1): 66.5 µL/min/1e6 cells
hepatocyte CLint at 2 µM ([6]; human CYP2D6 PM (poor metabolizer) hepatocytes, PM hepatocytes 2): 95.8 µL/min/1e6 cells
hepatocyte CLint at 2 µM ([6]; human CYP2D6 PM (poor metabolizer) hepatocytes, PM hepatocytes 3): 88 µL/min/1e6 cells
half-life at 2 µM ([6]; human CYP2D6 PM (poor metabolizer) hepatocytes, In vitro T1/2, PM hepatocytes 1): 37.2 min
half-life at 2 µM ([6]; human CYP2D6 PM (poor metabolizer) hepatocytes, In vitro T1/2, PM hepatocytes 2): 27.6 min
half-life at 2 µM ([6]; human CYP2D6 PM (poor metabolizer) hepatocytes, In vitro T1/2, PM hepatocytes 3): 32.2 min
half-life at 2 µM ([6]; human CYP2D6 PM (poor metabolizer) hepatocytes, In vitro T1/2, PM hepatocytes 4): 26.1 min
Ke ([4]; PM hepatocytes 1, 5-MeO-DMT alone, 2 µM): 0.0186 min⁻¹
Ke ([4]; PM hepatocytes 1, with harmaline, 2 µM each): 0.00086 min⁻¹
Ke ([4]; PM hepatocytes 2, 5-MeO-DMT alone, 2 µM): 0.0251 min⁻¹
In vitro T1/2 [4, 12]: cannot be estimated
Ke [4, 12]: cannot be estimated
Ke ([4]; PM hepatocytes 3, 5-MeO-DMT alone, 2 µM): 0.0215 min⁻¹
In vitro T1/2 [4, 13]: cannot be estimated
Ke [4, 13]: cannot be estimated
Ke ([4]; PM hepatocytes 4, 5-MeO-DMT alone, 2 µM): 0.0265 min⁻¹
In vitro T1/2 [4, 14]: cannot be estimated
Ke [4, 14]: cannot be estimated
Ke ([4]; PM hepatocytes Mean (N = 4), 5-MeO-DMT alone, 2 µM): 0.0229 min⁻¹
Ke ([4]; PM hepatocytes Mean (only one sample estimable), with harmaline, 2 µM each): 0.00086 min⁻¹
lower catalytic efficiency (Vmax/Km) compared with wild-type CYP2D6.1 (CYP2D6.2; [11]): 2.6 fold
CLint (CYP2D6.2; [9]): 0.17 µL/pmol P450/min
Vmax (CYP2D6.2; [10]): 14.4 ± 0.9 pmol/pmol P450/min
Km at 5 min (CYP2D6.2; human, recombinant CYP2D6.2 reconstituted with P450 reductase, pH 7.4): 85 ± 19.4 µM
